The subject of series [1] is human peripheral blood mononuclear cells. Kind of series: Activation inhibition assay for human peripheral blood mononuclear cells (CD40L, CD69 expression). In kind it is cell-based. The settings on record: PBMC, anti-CD3 + anti-CD28, 6 hours, flow cytometry. Here is the method: In accordance with the method of Assay Example 2, PBMC (2×10^6 cells/mL) was isolated from human peripheral blood, suspended in RPMI 1640 medium (containing 10% fetal bovine serum, 10 mM HEPES, 1 mM pyruvic acid, and 4.5 g/L glucose), and seeded in wells of a 96 well plate at 0.225 mL per well. The test substances were added to respective wells, and then an anti-CD3 antibody (2 μg/mL) and an anti-CD28 antibody (1 μg/mL) were added. Then, after incubation under conditions of carbon dioxide 5% at a temperature 37° C. for 6 hours, the expressions of CD40L and CD69, activation markers, were analysed by flow cytometry. As a result, when the cells were stimulated by both an anti-CD3 antibody and an anti-CD28 antibody, CD40L was expressed on 14.4% of PBMC, which was also CD4 positive. However, the proportion of the cells which expressed CD40L decreased when the cells had been treated with test substances (Compound 4: 4.9%; Compound 20: 3.7%, Compound 24: 3.6%).

The test system of series [2] is collagen-induced arthritis. The experiment in a line: Collagen-induced arthritis inhibitory action. In kind it is in vivo, mouse. The settings on record: DBA1 mice. Here is the method:
Bovine type II collagen suspended in Freund's complete adjuvant was intradermally administered to the base of tail of DBA1 male mice (7 weeks old, purchased from Charles River Laboratories Japan Inc.) on day 1 and day 21. Then, from day 28 when 50% of the mice developed arthritis, the test substances suspended in 0.5% hydroxypropylcellulose (HPC) were orally administered on consecutive days. Here, the efficacy was evaluated by scoring the arthritis. Specifically, for each paw, the degree of arthritis was evaluated according to: no symptoms: 0; redness or swelling of one joint: 1; redness or swelling for two or more joints: 2; redness or swelling over the entire paw: 3; and maximum redness or swelling over the entire paw: 4.

Series [3] relates to fulminant hepatitis. Kind of series: Fulminant hepatitis model (galactosamine and LPS). In kind it is in vivo, mouse. The note with it: BALB/c mice, galactosamine 800 mg/kg and LPS 110 μg/kg i.p. Here is the method: BALB/c male mice (7 weeks old, purchased from Charles River Laboratories Japan Inc.) were used in the experiment. After having orally administered the test substances suspended in 5% HPC, galactosamine (800 mg/kg) and LPS (110 μg/kg) were intraperitoneally administered. Then, survival rates at 72 hours after administration were obtained.

Series [4] has as its system Rabbit synoviocytes HIG-82. The experiment in a line: Inhibition assay for proliferation of rabbit synoviocyte. In kind it is cell-based. The settings on record: Oryctolagus cuniculus, 72 h; HIG-82, 3 days, Alamar Blue.
Series [5] concerns THP-1 cells. Kind of series: Proliferation inhibitory activity on hematologic neoplasm cells, THP-1. The note with it: Homo sapiens, THP-1, 72 h; 3 days, Alamar Blue. In kind it is cell-based.
Series [6] relates to Daudi cells. Kind of series: Therapeutic action on human B lymphoma xenografted model. In kind it is in vivo, mouse. The note with it: NOD/SCID mice, Daudi subcutaneous, 400 mg/kg oral after day 20. Here is the method:
Daudi cells (1×10^7 cells/mL) cultured in RPMI 1640 medium (containing 10% fetal bovine serum, 10 mM HEPES, 1 mM pyruvic acid, 4.5 g/L glucose, 100 units/mL penicillin, and 0.1 mg/mL streptomycin) were implanted subcutaneously in the chests of 8 week-old NOD/SCID mice. After day 20 when the tumor had grown to the volume of about 800 mm^3, Compound 4 (400 mg/kg) was administered orally.

The subject of series [7] is Jurkat cells. The experiment in a line: Proliferation inhibitory activity on hematologic neoplasm cells, Jurkat. In kind it is cell-based. The settings on record: Homo sapiens, Jurkat, 72 h; 3 days, Alamar Blue.
For series [8], the system named is human peripheral blood mononuclear cells. The experiment in a line: Proliferation inhibition assay for human peripheral blood mononuclear cells. It is filed as cell-based. The settings on record: Homo sapiens, 72 h; PBMC, anti-CD3 and anti-CD28 antibody, 3 days, Alamar Blue. The method, boiled down:
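PBMC from healthy donors (1×10^5 cells/mL) in RPMI 1640 with 10% FBS were stimulated with plate-bound anti-CD3 plus anti-CD28 (1 μg/mL). Serially diluted compounds were added and cells were cultured 3 days at 37 °C. Alamar Blue was then added for 1 day and fluorescence was read at ex 530/em 590 nm.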

Series [9] is described as follows: Toxicologic test for single oral administration. The settings on record: rat, in vivo, po, 1200 mg/kg.
Series [10] deals with HL 60 cells. The experiment in a line: Proliferation inhibitory activity on hematologic neoplasm cells, HL60. In kind it is cell-based. The settings on record: Homo sapiens, HL-60, 72 h; 3 days, Alamar Blue.

The structures appear in SMILES notation.

Turning to `FC(F)c1nc2ccccc2n1-c1nc(N2CCOCC2)nc(N2CCOCC2)n1` [Compound 4, 2-(2-Difluoromethylbenzimidazol-1-yl)-4,6-dimorpholino-1,3,5-triazine], the “proportion of the cells which expressed CD40L” value in [1] (CD4 positive, 14.4% without test substance) was found to be 4.9%. Besides, in series [1] (28.8% without test substance), the “proportion of CD4-positive cells which expressed CD69” value stood at 18.8%. Moreover, the “proportion of CD4-negative cells which expressed CD69” value in series [1] (50.9% without test substance) is recorded as 17.7%. The “arthritis score, difference versus control group” value in series [2] (50 mg/kg oral, after day 44 (conditions exacerbated after day 40)) was “no significant difference was recognized in comparison with the control group”. Moreover, the “arthritis score, efficacy versus control group” value in series [2] (50 or 100 mg/kg oral, after day 30, Dunnett's test P<0.05) was “a statistically significant efficacy was recognized”. Moreover, the “progression of collagen-induced arthritis (arthritis score)” value in [2] (oral on consecutive days from day 28) is reported as “inhibited the progression of the collagen-induced arthritis in a dose-dependent manner”. The results for the “Survival Rate after 72 Hours” value in [3] (50 mg/kg oral) and in series [3] (100 mg/kg oral) were 60% and 83%, respectively. Further, the IC50 stood at 953 nM in series [4]; 511 nM in series [5]; 1950 nM in series [7]; 312 nM in [8]; 1120 nM in series [10]. For the same compound, the “increase in tumor volume” value in series [6] is recorded as “inhibited”. Further, the “death after single oral dose” value in series [9] is “no examples of death were recognized”.
